From US12617783B2, “Heterocyclic GLP-1R agonists” (BIOMEA FUSION, INC., priority 2024, dated 2026)

The compounds below were run against T1, human GLP-1R (Homo sapiens, UniProt P43220) (assay: GLP-1R cAMP assay (Example B1a, HTRF, 30 min at room temperature)). Conditions: cAMP accumulation in HEK293 expressing human GLP-1R, no BETP, 30 min room temperature (Method B1a, compounds ID 1-609), Table 1; read-out: EC50.
T1 construct: host or cells: HEK293
T1 sequence (P43220 24-463): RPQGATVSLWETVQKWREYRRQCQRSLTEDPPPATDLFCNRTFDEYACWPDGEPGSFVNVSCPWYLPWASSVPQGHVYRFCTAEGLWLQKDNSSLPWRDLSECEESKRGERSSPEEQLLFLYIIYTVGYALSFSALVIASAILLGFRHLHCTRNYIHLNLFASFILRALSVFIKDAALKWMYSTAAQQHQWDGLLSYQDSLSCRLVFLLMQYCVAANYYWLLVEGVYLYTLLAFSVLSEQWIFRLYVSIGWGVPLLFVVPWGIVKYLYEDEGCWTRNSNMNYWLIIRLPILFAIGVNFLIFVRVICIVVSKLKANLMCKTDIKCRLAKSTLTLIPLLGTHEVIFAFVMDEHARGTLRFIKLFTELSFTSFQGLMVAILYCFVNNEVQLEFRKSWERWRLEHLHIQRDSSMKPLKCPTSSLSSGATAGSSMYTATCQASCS
Assay type: cell-based
Experimental: Assay was carried out with HEK293 expressing human GLP-1R using HTRF assay, developed by Wuxi Apptec. The method is a competitive assay between native cAMP produced by the cells and exogenous cAMP labeled with a proprietary dye d2. The tracer binding is visualized by a mAb anti-cAMP labeled with Cryptate. The signal (i.e. energy transfer) is inversely proportional to the concentration of CAMP in either standard or experimental sample. Compounds were tested in the absence of BETP. Ten microliter of cell suspension in assay buffer (5 mM HEPES, 500 μM IBMX, 0.1% BSA) were added to each well (1,000 cells per well) in a low volume 384-well plate for the assay. Serially diluted compounds were added in 100 nL volume to duplicate wells, by Labcyte Echo. GLP-1 (7-37) was used as positive control. Assay plate was incubated for 30 minutes at room temperature. Stock of cAMP Detection Solution was prepared by mixing 38 parts of cAMP lysis buffer, 1 part of cAMP-D2, 1 part of anti-cAMP cryptate reagent (Cisbio #62AM4PEJ). Ten microliter of the cAMP Detection Solution was added to each well, and the assay plate was incubated for 1 hour at room temperature in the dark. Plates were read on Envision plate reader. The data were analyzed by ScreenUltra in Dotmatics, with % activation expressed using following formula: (Well data−negative control)/(postive control−negative control)*100. Dose response curves were plotted and EC50 values calculated by non-linear regression using 4-parameter fit.
`Cc1cc(-n2nc3c(c2-n2ccn(-c4ccc5c(cnn5C)c4F)c2=O)[C@@H]2CC[C@H](C3)N2C(=O)c2cc3ccc(C4CCOCC4)cc3nc2C2(c3noc(=O)[nH]3)CC2C)cc(C)c1F` (single isomer, unassigned) [Compound 237] showed an EC50 of 123 nM.
In the case of `Cc1cc(-n2nc3c(c2-n2cc(-c4ccc5c(cnn5C)c4F)nn2)[C@H](C)N(C(=O)c2cc4cc([C@H]5CCOC(C)(C)C5)ccc4n2[C@@]2(c4noc(=O)[nH]4)C[C@@H]2C)CC3)cc(C)c1F` [Compound 1, 3-((1S,2S)-1-(5-((S)-2,2-dimethyltetrahydro-2H-pyran-4-yl)-2-((S)-3-(4-(4-fluoro-1-methyl-1H-indazol-5-yl)-1H-1,2,3-triazol-1-yl)-2-(4-fluoro-3,5-dimethylphenyl)-4-methyl-4,5,6,7-tetrahydro-2H-pyrazolo[4,3-c]pyridine-5-carbonyl)-1H-indol-1-yl)-2-methylcyclopropyl)-1,2,4-oxadiazol-5 (4H)-one], the EC50 is reported as > 10000 nM.
`Cc1cc(-n2nc3c(c2-c2nnc(-c4ccc5c(cnn5C)c4F)o2)[C@H](C)N(C(=O)c2cc4cc([C@H]5CCOC(C)(C)C5)ccc4n2[C@@]2(c4noc(=O)[nH]4)C[C@@H]2C)CC3)cc(C)c1F` [Compound 5, 3-((1S,2S)-1-(5-((S)-2,2-dimethyltetrahydro-2H-pyran-4-yl)-2-((S)-3-(5-(4-fluoro-1-methyl-1H-indazol-5-yl)-1,3,4-oxadiazol-2-yl)-2-(4-fluoro-3,5-dimethylphenyl)-4-methyl-4,5,6,7-tetrahydro-2H-pyrazolo[4,3-c]pyridine-5-carbonyl)-1H-indol-1-yl)-2-methylcyclopropyl)-1,2,4-oxadiazol-5 (4H)-one] was tested, and the EC50 was > 10000 nM.
Compound `Cc1cc(-n2nc3c(c2-c2ncn(-c4ccc5c(cnn5C)c4F)c2C)[C@H](C)N(C(=O)c2cc4cc([C@H]5CCOC(C)(C)C5)ccc4n2[C@@]2(c4noc(=O)[nH]4)C[C@@H]2C)CC3)cc(C)c1F` [Compound 15, 3-((1S,2S)-1-(5-((S)-2,2-dimethyltetrahydro-2H-pyran-4-yl)-2-((S)-3-(1-(4-fluoro-1-methyl-1H-indazol-5-yl)-5-methyl-1H-imidazol-4-yl)-2-(4-fluoro-3,5-dimethylphenyl)-4-methyl-4,5,6,7-tetrahydro-2H-pyrazolo[4,3-c]pyridine-5-carbonyl)-1H-indol-1-yl)-2-methylcyclopropyl)-1,2,4-oxadiazol-5 (4H)-one] has an EC50 of 584 nM.
`Cc1cc(-n2nc3c(c2-c2nc(-c4ccc5c(cnn5C)c4F)cn2C)[C@H](C)N(C(=O)c2cc4cc([C@H]5CCOC(C)(C)C5)ccc4n2[C@@]2(c4noc(=O)[nH]4)C[C@@H]2C)CC3)cc(C)c1F` [Compound 21, 3-((1S,2S)-1-(5-((S)-2,2-dimethyltetrahydro-2H-pyran-4-yl)-2-((S)-3-(4-(4-fluoro-1-methyl-1H-indazol-5-yl)-1-methyl-1H-imidazol-2-yl)-2-(4-fluoro-3,5-dimethylphenyl)-4-methyl-4,5,6,7-tetrahydro-2H-pyrazolo[4,3-c]pyridine-5-carbonyl)-1H-indol-1-yl)-2-methylcyclopropyl)-1,2,4-oxadiazol-5 (4H)-one] gave an EC50 of 591 nM.
In the case of `Cc1cc(-n2nc3c(c2N2C(=O)CN(c4ccc5c(cnn5C)c4F)C2=O)[C@H](C)N(C(=O)c2cc4cc([C@H]5CCOC(C)(C)C5)ccc4n2[C@@]2(c4noc(=O)[nH]4)C[C@@H]2C)CC3)cc(C)c1F` [Compound 23, 3-((S)-5-(5-((S)-2,2-dimethyltetrahydro-2H-pyran-4-yl)-1-((1S,2S)-2-methyl-1-(5-oxo-4,5-dihydro-1,2,4-oxadiazol-3-yl)cyclopropyl)-1H-indole-2-carbonyl)-2-(4-fluoro-3,5-dimethylphenyl)-4-methyl-4,5,6,7-tetrahydro-2H-pyrazolo[4,3-c]pyridin-3-yl)-1-(4-fluoro-1-methyl-1H-indazol-5-yl) imidazolidine-2,4-dione], the EC50 is reported as 361 nM.
For `Cc1cc(-n2nc3c(c2-c2nc(-c4ccc5c(cnn5C)c4F)c(C)[nH]2)[C@H](C)N(C(=O)c2cc4cc([C@H]5CCOC(C)(C)C5)ccc4n2[C@@]2(c4noc(=O)[nH]4)C[C@@H]2C)CC3)cc(C)c1F` [Compound 24, 3-((1S,2S)-1-(5-((S)-2,2-dimethyltetrahydro-2H-pyran-4-yl)-2-((S)-3-(4-(4-fluoro-1-methyl-1H-indazol-5-yl)-5-methyl-1H-imidazol-2-yl)-2-(4-fluoro-3,5-dimethylphenyl)-4-methyl-4,5,6,7-tetrahydro-2H-pyrazolo[4,3-c]pyridine-5-carbonyl)-1H-indol-1-yl)-2-methylcyclopropyl)-1,2,4-oxadiazol-5 (4H)-one], the EC50 was > 10000 nM.
In the case of `Cc1cc(-n2nc3c(c2N2CCN(c4ccc5c(cnn5C)c4F)C(=O)C2=O)[C@H](C)N(C(=O)c2cc4cc([C@H]5CCOC(C)(C)C5)ccc4n2[C@@]2(c4noc(=O)[nH]4)C[C@@H]2C)CC3)cc(C)c1F` [Compound 28, 1-((S)-5-(5-((S)-2,2-dimethyltetrahydro-2H-pyran-4-yl)-1-((1S,2S)-2-methyl-1-(5-oxo-4,5-dihydro-1,2,4-oxadiazol-3-yl)cyclopropyl)-1H-indole-2-carbonyl)-2-(4-fluoro-3,5-dimethylphenyl)-4-methyl-4,5,6,7-tetrahydro-2H-pyrazolo[4,3-c]pyridin-3-yl)-4-(4-fluoro-1-methyl-1H-indazol-5-yl) piperazine-2,3-dione], the EC50 is reported as > 10000 nM.
For `Cc1cc(-n2nc3c(c2-c2ncn(-c4ccc5c(cnn5C)c4F)c2C)[C@H](C)N(C(=O)c2cc4cc([C@H]5CCOC(C)(C)C5)ccc4n2C2(c4noc(=O)[nH]4)CC2)CC3)cc(C)c1F` [Compound 30, 3-(1-(5-((S)-2,2-dimethyltetrahydro-2H-pyran-4-yl)-2-((4S)-3-(1-(4-fluoro-1-methyl-1H-indazol-5-yl)-5-methyl-1H-imidazol-4-yl)-2-(4-fluoro-3,5-dimethylphenyl)-4-methyl-4,5,6,7-tetrahydro-2H-pyrazolo[4,3-c]pyridine-5-carbonyl)-1H-indol-1-yl)cyclopropyl)-1,2,4-oxadiazol-5 (4H)-one], the EC50 was > 10000 nM.
`Cc1cc(-n2nc3c(c2-n2ccn(-c4ccc5c(cnn5C)c4F)c2=O)C2CCC(C3)N2C(=O)c2cc3cc([C@H]4CCOC(C)(C)C4)ccc3n2[C@@]2(c3noc(=O)[nH]3)C[C@@H]2C)cc(C)c1F` (stereo partly drawn) [Compound 32, 3-((1S,2S)-1-(5-((S)-2,2-dimethyltetrahydro-2H-pyran-4-yl)-2-(3-(3-(4-fluoro-1-methyl-1H-indazol-5-yl)-2-oxo-2,3-dihydro-1H-imidazol-1-yl)-2-(4-fluoro-3,5-dimethylphenyl)-2,4,5,6,7,8-hexahydro-4,7-epiminocyclohepta [c]pyrazole-9-carbonyl)-1H-indol-1-yl)-2-methylcyclopropyl)-1,2,4-oxadiazol-5 (4H)-one] showed an EC50 of 92.6 nM.
`Cc1cc(-n2nc3c(c2-n2ccn(-c4ccc5c(cnn5C)c4F)c2=O)[C@H]2CC[C@@H](C3)N2C(=O)c2cc3cc([C@H]4CCOC(C)(C)C4)ccc3n2[C@@]2(c3noc(=O)[nH]3)C[C@@H]2C)cc(C)c1F` [Compound 35, 3-((1S,2S)-1-(5-((S)-2,2-dimethyltetrahydro-2H-pyran-4-yl)-2-((4R,7S)-3-(3-(4-fluoro-1-methyl-1H-indazol-5-yl)-2-oxo-2,3-dihydro-1H-imidazol-1-yl)-2-(4-fluoro-3,5-dimethylphenyl)-2,4,5,6,7,8-hexahydro-4,7-epiminocyclohepta [c]pyrazole-9-carbonyl)-1H-indol-1-yl)-2-methylcyclopropyl)-1,2,4-oxadiazol-5 (4H)-one] was tested, and the EC50 was ≥ 100000 nM.
In the case of `Cc1cc(-n2nc3c(c2-c2ncn(-c4ccc5c(cnn5C)c4F)c2C)[C@H](C)N(C(=O)c2cc4cc(C5=CCC(F)(F)CC5)ccc4n2C2(c4noc(=O)[nH]4)CC2)CC3)cc(C)c1F` [Compound 105, 3-[1-[5-(4,4-difluorocyclohexen-1-yl)-2-[(4S)-2-(4-fluoro-3,5-dimethyl-phenyl)-3-[1-(4-fluoro-1-methyl-indazol-5-yl)-5-methyl-imidazol-4-yl]-4-methyl-6,7-dihydro-4H-pyrazolo[4,3-c]pyridine-5-carbonyl]indol-1-yl]cyclopropyl]-4H-1,2,4-oxadiazol-5-one], the EC50 is reported as > 10000 nM.
With `Cc1cc(-n2nc3c(c2-c2ncn(-c4ccc5c(cnn5C)c4F)c2C)[C@H](C)N(C(=O)c2cc4cc(C5CCC(F)(F)CC5)ccc4n2C2(c4noc(=O)[nH]4)CC2)CC3)cc(C)c1F` [Compound 106, 3-[1-[5-(4,4-difluorocyclohexyl)-2-[(4S)-2-(4-fluoro-3,5-dimethyl-phenyl)-3-[1-(4-fluoro-1-methyl-indazol-5-yl)-5-methyl-imidazol-4-yl]-4-methyl-6,7-dihydro-4H-pyrazolo[4,3-c]pyridine-5-carbonyl]indol-1-yl]cyclopropyl]-4H-1,2,4-oxadiazol-5-one] the EC50 was > 10000 nM.

Same assay, conditions: text to Table 1d, bridge atoms configured out of the plane or toward the reader
With `Cc1cc(-n2nc3c(c2-n2ccn(-c4ccc5c(cnn5C)c4F)c2=O)[C@H]2CC[C@@H](C3)N2C(=O)c2cc3cc([C@H]4CCOC(C)(C)C4)ccc3n2[C@@]2(c3noc(=O)[nH]3)C[C@@H]2C)cc(C)c1F` [Compound 35, 3-((1S,2S)-1-(5-((S)-2,2-dimethyltetrahydro-2H-pyran-4-yl)-2-((4R,7S)-3-(3-(4-fluoro-1-methyl-1H-indazol-5-yl)-2-oxo-2,3-dihydro-1H-imidazol-1-yl)-2-(4-fluoro-3,5-dimethylphenyl)-2,4,5,6,7,8-hexahydro-4,7-epiminocyclohepta [c]pyrazole-9-carbonyl)-1H-indol-1-yl)-2-methylcyclopropyl)-1,2,4-oxadiazol-5 (4H)-one] the potency was “little or no potency”.
